Measured values taken from ChEMBL document CHEMBL5518230, “Identification of a Novel Selective CDK9 Inhibitor for the Treatment of CRC: Design, Synthesis, and Biological Activity Evaluation” (J Med Chem, 2024).
The source made the active and inactive calls. No cut-off for these calls is given here.

Key:
[1] = biological target: CDK9/cyclin T1 (Homo sapiens) (UniProt O60563+P50750); test: Inhibition of CDK9/Cyclin T1 (unknown origin) using PDKtide substrate at 500 nM incubated for 60 mins by ADP-Glo kinase assay relative to control; format: protein-complex assay
[2] = biological target: Cyclin-dependent kinase 2/cyclin E1 (Homo sapiens) (UniProt P24864+P24941); test: Inhibition of CDK2/Cyclin E1 (unknown origin) at 100 nM; format: protein-complex assay
[3] = biological target: CDK1/Cyclin E (Homo sapiens) (UniProt P06493+P24864); test: Inhibition of CDK1/Cyclin E1 (unknown origin) at 100 nM; format: protein-complex assay
Sequence of CDK1/Cyclin E (Homo sapiens) (P06493 whole entry, looked up): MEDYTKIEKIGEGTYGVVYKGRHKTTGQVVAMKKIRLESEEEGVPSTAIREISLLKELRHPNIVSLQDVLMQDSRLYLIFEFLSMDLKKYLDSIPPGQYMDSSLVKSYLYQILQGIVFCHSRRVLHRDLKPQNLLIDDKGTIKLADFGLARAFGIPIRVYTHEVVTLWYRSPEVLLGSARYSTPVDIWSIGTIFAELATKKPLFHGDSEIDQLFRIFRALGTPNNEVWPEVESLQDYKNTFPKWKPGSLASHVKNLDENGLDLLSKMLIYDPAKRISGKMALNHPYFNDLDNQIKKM
Sequence of CDK1/Cyclin E (Homo sapiens) (P24864 whole entry, looked up): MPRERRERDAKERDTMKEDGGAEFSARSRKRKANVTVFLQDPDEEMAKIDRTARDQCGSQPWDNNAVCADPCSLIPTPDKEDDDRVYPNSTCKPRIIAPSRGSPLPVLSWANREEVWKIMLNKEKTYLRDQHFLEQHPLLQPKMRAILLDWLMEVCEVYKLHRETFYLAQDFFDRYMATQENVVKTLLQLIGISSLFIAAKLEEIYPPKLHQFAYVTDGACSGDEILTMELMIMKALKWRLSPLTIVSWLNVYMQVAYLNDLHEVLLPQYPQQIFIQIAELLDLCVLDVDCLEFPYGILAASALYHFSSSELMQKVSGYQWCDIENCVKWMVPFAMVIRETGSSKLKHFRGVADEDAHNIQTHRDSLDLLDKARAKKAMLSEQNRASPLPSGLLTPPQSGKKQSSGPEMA

[4] = system: HT-29; test: Growth inhibition of human HT-29 cells incubated for 48 hrs by CCK-8 assay; format: functional
[5] = biological target: CDK9/cyclin T1 (Homo sapiens, UniProt P50750); test: Inhibition of CDK9/Cyclin T1 (unknown origin) using PDKtide substrate incubated for 60 mins by ADP-Glo kinase assay; format: protein-complex assay
Sequence of CDK9/cyclin T1 (O60563 whole entry): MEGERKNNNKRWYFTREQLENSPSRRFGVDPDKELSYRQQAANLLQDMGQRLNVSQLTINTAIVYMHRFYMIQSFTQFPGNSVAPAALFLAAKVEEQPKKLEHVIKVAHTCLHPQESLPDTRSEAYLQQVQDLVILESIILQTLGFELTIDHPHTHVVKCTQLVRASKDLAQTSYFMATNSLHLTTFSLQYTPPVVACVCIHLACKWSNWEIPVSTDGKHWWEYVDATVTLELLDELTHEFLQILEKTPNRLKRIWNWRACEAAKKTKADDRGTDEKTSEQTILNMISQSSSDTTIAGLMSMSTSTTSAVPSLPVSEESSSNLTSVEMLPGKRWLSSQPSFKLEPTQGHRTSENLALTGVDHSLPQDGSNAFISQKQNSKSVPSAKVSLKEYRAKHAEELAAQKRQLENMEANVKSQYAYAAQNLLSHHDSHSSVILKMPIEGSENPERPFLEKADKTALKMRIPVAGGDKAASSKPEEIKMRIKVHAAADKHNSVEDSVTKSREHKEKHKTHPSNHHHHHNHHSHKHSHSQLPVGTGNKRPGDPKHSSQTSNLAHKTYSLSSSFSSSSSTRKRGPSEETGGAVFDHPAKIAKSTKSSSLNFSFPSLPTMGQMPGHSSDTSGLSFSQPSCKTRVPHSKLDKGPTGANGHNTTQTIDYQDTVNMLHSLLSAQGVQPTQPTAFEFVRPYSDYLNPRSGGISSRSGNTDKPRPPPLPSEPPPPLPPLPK
Sequence of CDK9/cyclin T1 (P50750 whole entry): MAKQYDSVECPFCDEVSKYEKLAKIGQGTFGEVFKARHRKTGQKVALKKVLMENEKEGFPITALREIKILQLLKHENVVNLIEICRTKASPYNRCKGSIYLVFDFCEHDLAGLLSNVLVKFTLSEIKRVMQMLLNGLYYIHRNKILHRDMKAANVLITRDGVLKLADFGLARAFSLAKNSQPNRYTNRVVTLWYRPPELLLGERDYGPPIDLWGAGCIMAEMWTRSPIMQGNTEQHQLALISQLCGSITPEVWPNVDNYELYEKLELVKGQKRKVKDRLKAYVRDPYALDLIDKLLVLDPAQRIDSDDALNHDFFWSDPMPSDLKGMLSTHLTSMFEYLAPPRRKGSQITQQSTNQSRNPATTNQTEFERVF

[6] = system: HCT-116; test: Growth inhibition of human HCT-116 cells incubated for 48 hrs by CCK-8 assay; format: functional
[7] = biological target: CDK2/Cyclin A2 (Homo sapiens) (UniProt P24941+P20248); test: Inhibition of CDK2/Cyclin A2 (unknown origin) at 100 nM; format: protein-complex assay
[8] = species: Homo sapiens; test: Inhibition of CDK1/Cyclin A2 (unknown origin) at 100 nM
[9] = biological target: Cyclin-dependent kinase 2 (Homo sapiens, UniProt P24941); test: Inhibition of CDK2 (unknown origin)
[10] = biological target: Cyclin-dependent kinase 1 (Homo sapiens, UniProt P06493); test: Inhibition of CDK1 (unknown origin)
Sequence of Cyclin-dependent kinase 1 (P06493 whole entry): as the sequence (P06493 whole entry, looked up) above

[11] = biological target: CYP2C9 (Homo sapiens, UniProt P11712); test: Inhibition of CYP2C9 in human liver microsomes using sulfaphenazole as […] at 10 uM preincubated for 10 mins followed by NADPH addition measured after 15 mins by LC-MS/MS analysis relative to control; format: ADME, Microsome; settings: probe sulfaphenazole, time 25 min
Sequence of CYP2C9 (P11712 whole entry): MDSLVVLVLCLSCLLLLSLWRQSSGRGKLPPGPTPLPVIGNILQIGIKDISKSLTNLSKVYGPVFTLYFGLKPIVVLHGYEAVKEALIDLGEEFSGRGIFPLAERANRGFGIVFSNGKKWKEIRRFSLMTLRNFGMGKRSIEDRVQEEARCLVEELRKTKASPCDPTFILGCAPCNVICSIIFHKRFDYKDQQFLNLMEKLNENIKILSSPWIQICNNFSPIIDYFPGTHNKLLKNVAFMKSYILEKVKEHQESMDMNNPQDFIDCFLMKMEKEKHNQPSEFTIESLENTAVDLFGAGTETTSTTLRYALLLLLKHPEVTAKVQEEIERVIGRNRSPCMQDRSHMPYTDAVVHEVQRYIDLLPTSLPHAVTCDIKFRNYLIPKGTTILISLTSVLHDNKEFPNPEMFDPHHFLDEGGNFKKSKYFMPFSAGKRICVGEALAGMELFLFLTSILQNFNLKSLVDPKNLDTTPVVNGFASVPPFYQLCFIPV

[12] = biological target: CYP2D6 (Homo sapiens, UniProt P10635); test: Inhibition of CYP2D6 in human liver microsomes using quinidine as […] at 10 uM preincubated for 10 mins followed by NADPH addition measured after 15 mins by LC-MS/MS analysis relative to control; format: ADME, Microsome; settings: time 25 min
Sequence of CYP2D6 (P10635 whole entry): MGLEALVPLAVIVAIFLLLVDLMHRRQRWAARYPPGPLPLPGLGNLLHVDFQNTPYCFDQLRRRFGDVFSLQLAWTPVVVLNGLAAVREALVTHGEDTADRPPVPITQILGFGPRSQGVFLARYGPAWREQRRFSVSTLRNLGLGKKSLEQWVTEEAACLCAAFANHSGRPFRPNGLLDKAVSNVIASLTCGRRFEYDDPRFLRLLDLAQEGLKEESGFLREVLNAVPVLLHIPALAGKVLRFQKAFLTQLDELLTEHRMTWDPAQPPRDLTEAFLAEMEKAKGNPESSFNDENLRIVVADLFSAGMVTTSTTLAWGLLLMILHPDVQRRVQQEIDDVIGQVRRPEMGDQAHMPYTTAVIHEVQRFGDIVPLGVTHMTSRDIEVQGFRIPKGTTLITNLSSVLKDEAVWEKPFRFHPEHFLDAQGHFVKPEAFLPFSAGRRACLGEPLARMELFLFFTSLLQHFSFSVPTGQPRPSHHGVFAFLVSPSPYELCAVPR

[13] = Intrinsic clearance in human liver microsomes at 100 uM measured upto 60 mins in presence of NADPH by LC-MS/MS analysis; format: ADME, Microsome; settings: 1 h
[14] = Intrinsic microsomal clearance in human liver microsomes at 100 uM measured upto 60 mins in presence of NADPH by LC-MS/MS analysis; format: ADME, Microsome; settings: read-out: CLH
[15] = biological target: Cyclin-dependent kinase 8 (Homo sapiens, UniProt P49336); test: Inhibition of CDK8 (unknown origin)
[16] = biological target: CYP2C19 (Homo sapiens, UniProt P33261); test: Inhibition of CYP2C19 in human liver microsomes using benzylnirvanol as […] at 10 uM preincubated for 10 mins followed by NADPH addition measured after 15 mins by LC-MS/MS analysis relative to control; format: ADME, Microsome; settings: probe benzylnirvanol, time 25 min
Sequence of CYP2C19 (P33261 whole entry): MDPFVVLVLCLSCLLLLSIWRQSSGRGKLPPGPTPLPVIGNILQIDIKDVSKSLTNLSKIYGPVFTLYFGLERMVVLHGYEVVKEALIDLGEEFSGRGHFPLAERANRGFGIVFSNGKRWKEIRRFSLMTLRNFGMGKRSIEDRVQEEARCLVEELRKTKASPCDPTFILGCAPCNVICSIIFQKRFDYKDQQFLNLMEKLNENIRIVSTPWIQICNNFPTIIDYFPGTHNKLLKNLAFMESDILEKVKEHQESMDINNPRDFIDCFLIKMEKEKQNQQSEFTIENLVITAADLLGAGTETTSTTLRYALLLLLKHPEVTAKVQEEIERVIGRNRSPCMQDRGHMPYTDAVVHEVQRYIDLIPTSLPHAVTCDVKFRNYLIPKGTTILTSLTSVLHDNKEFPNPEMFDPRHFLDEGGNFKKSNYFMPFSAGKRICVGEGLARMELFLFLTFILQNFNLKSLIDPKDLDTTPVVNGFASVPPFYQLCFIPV

[17] = Stability in human liver microsomes assessed as compound remaining at 100 uM measured upto 60 mins in presence of NADPH by LC-MS/MS analysis; format: ADME, Microsome; settings: read-out: Stability
[18] = biological target: Cyclin-dependent kinase 4 (Homo sapiens, UniProt P11802); test: Inhibition of CDK4 (unknown origin)
Sequence of Cyclin-dependent kinase 4 (P11802 whole entry): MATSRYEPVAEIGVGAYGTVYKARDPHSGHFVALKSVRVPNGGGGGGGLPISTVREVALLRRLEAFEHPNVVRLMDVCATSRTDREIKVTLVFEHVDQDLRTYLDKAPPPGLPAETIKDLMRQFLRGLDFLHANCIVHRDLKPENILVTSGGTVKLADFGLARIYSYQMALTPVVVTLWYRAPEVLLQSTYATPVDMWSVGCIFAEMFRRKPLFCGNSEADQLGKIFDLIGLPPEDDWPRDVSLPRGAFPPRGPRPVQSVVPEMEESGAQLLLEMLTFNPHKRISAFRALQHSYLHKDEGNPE

[19] = biological target: Cyclin-dependent kinase 6 (Homo sapiens, UniProt Q00534); test: Inhibition of CDK6 (unknown origin)
Sequence of Cyclin-dependent kinase 6 (Q00534 whole entry): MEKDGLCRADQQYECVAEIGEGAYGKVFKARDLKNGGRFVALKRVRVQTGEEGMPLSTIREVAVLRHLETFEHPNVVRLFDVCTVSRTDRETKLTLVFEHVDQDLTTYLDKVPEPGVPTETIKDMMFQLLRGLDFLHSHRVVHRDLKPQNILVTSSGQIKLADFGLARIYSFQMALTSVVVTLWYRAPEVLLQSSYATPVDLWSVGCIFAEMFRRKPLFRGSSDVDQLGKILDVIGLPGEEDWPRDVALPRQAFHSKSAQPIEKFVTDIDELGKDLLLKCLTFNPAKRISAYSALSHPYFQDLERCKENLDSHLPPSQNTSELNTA

[20] = biological target: Cyclin-dependent kinase 5 (Homo sapiens, UniProt Q00535); test: Inhibition of CDK5 (unknown origin)
Sequence of Cyclin-dependent kinase 5 (Q00535 whole entry): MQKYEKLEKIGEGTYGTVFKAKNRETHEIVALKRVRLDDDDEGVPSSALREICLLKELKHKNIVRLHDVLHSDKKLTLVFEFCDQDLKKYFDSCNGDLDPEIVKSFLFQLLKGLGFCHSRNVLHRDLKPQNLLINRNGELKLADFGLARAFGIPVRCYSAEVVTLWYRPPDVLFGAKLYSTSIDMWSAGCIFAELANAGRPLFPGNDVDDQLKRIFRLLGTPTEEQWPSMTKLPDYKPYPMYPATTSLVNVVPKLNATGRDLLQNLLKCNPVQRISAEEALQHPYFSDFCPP

[21] = biological target: T1, CYP1A2 (Homo sapiens, UniProt P05177); test: Inhibition of CYP1A2 in human liver microsomes using alpha-naphthoflavone as […] at 10 uM preincubated for 10 mins followed by NADPH addition measured after 15 mins by LC-MS/MS analysis relative to control; format: ADME, Microsome; settings: time 25 min
T1 sequence (P05177 whole entry): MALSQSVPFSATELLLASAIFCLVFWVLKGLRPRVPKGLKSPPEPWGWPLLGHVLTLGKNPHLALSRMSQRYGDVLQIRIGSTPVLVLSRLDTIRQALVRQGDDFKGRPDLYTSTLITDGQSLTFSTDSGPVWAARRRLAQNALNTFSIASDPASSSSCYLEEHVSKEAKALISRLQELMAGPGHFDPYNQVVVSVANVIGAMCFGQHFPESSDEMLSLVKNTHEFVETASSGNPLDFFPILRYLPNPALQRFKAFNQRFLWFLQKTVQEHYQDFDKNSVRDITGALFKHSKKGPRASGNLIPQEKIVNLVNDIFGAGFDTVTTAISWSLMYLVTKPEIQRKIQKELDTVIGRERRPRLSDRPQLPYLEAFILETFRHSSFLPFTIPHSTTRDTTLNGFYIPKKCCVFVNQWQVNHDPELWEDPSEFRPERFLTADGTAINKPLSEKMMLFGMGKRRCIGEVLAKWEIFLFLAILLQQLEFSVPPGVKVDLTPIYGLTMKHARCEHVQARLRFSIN

[22] = biological target: CYP3A4 (Homo sapiens, UniProt P08684); test: Inhibition of CYP3A4 in human liver microsomes using ketoconazole as […] at 10 uM preincubated for 10 mins followed by NADPH addition measured after 15 mins by LC-MS/MS analysis relative to control; format: ADME, Microsome; settings: probe ketoconazole, time 25 min
[23] = biological target: Cyclin-dependent kinase 7 (Homo sapiens, UniProt P50613); test: Inhibition of CDK7 (unknown origin)
Sequence of Cyclin-dependent kinase 7 (P50613 whole entry): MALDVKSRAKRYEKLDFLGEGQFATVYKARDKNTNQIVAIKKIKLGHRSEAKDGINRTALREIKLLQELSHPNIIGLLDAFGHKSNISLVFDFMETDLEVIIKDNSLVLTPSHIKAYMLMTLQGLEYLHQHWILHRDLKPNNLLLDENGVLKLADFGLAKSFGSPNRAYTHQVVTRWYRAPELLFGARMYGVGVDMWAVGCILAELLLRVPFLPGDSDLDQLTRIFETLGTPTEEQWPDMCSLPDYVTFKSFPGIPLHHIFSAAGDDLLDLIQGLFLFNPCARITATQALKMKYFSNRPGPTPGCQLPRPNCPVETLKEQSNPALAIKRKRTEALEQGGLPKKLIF

[24] = biological target: Cyclin-dependent kinase 9 (Homo sapiens, UniProt P50750); test: Inhibition of CDK9 (unknown origin)
Sequence of Cyclin-dependent kinase 9 (P50750 whole entry): as the sequence (P50750 whole entry) above

[25] = Half life in human liver microsomes at 100 uM measured upto 60 mins in presence of NADPH by LC-MS/MS analysis; format: ADME, Microsome
[26] = Half life in human plasma measured upto 120 mins by LC-MS/MS analysis; format: ADME, cell-free
[27] = biological target: Cyclin-dependent kinase 12 (Homo sapiens, UniProt Q9NYV4); test: Inhibition of CDK12 (unknown origin)

Row | Compound | inhibition [1] | GI50 [4] | IC50 [5] | GI50 [6] | also measured
1 | O=C(c1ccc(Nc2cc(-c3ccc4nnn(C5CCCC5)c4c3)ccn2)c(F)c1)N1CCOCC1 | 12.9% | – | – | – | –
2 | COc1cc(C(=O)N2CCOCC2)ccc1Nc1cc(-c2ccc3nnn(C(C)(C)C)c3c2)ccn1 | 28.1% | – | – | – | –
3 | O=C(c1ccc(Nc2cc(-c3ccc4nnn(C5CCCC5)c4c3)ccn2)c(C(F)(F)F)c1)N1CCOCC1 | 47.1% | – | – | – | –
4 | O=C(c1ccc(Nc2cc(-c3ccc4nnn(C5CCCCC5)c4c3)ccn2)c(C(F)(F)F)c1)N1CCOCC1 | 0.49% | – | – | – | –
5 | O=C(c1ccc(Nc2cc(-c3ccc4nnn(C5CCCCC5)c4c3)ccn2)c(F)c1)N1CCOCC1 | 41.1% | – | – | – | –
6 | O=C(c1ccc(Nc2cc(-c3ccc4nnn(C5CCCC5)c4c3)ccn2)cc1)N1CCOCC1 | 81.2% | – | – | – | –
7 | O=C(c1ccc(Nc2cc(-c3ccc4nnn(C5CCCC5)c4c3)ccn2)nc1)N1CCOCC1 | 99.7% | – | 9.92 nM | – | –
8 | CC(C)(C)n1nnc2ccc(-c3ccnc(Nc4ccc(C(=O)N5CCOCC5)cc4C(F)(F)F)c3)cc21 | 6.51% | – | – | – | –

The next lines start with results.

Row | inhibition [1] | GI50 [4] | IC50 [5] | GI50 [6] | Compound | also measured
9 | – | 50 nM | 3.8 nM | 60 nM | CCN1CCN(C(=O)c2ccc(Nc3cc(-c4ccc5nnn(C(C)C)c5c4)ccn3)nc2)CC1 | inhibition [2]: Active; inhibition [3]: Active; inhibition [7]: Active; inhibition [8]: Active
10 | – | 510 nM | 3.92 nM | 60 nM | CCN1CCN(C(=O)c2ccnc(Nc3cc(-c4ccc5nnn(C(C)C)c5c4)ccn3)c2)CC1 | –
11 | 50.3% | – | – | – | CC(C)(C)n1nnc2ccc(-c3ccnc(Nc4ccc(C(=O)N5CCOCC5)cc4F)c3)cc21 | –
12 | – | 420 nM | 1.32 nM | 80 nM | CC(C)n1nnc2ccc(-c3ccnc(Nc4cc(C(=O)N5CCCC5)ccn4)c3)cc21 | IC50 [9]: 134 nM; IC50 [10]: 161 nM; inhibition at 0.25 h, 10 µM [11]: 29.6%; inhibition at 0.25 h, 10 µM [12]: 0%; CLH [13]: 71.8 µL/min/mg; microsomal CLint at 100 µM [14]: 79.8 µL/min/mg; IC50 [15]: > 500 nM; inhibition at 0.25 h, 10 µM [16]: 56.1%; remaining at 1 h, 100 µM [17]: 9%; IC50 [18]: 35.6 nM; IC50 [19]: 11.5 nM; IC50 [20]: > 500 nM; inhibition at 0.25 h, 10 µM [21]: 12.2%; inhibition at 0.25 h, 10 µM [22]: 0%; IC50 [23]: > 500 nM; IC50 [24]: 1.3 nM; half-life at 100 µM [25]: 17.4 min; half-life [26]: > 289 min; IC50 [27]: > 500 nM
13 | – | > 2000 nM | 1.94 nM | 520 nM | CC(C)n1nnc2ccc(-c3ccnc(Nc4cc(C(=O)N5CCNC(=O)C5)ccn4)c3)cc21 | –
14 | – | 350 nM | 6.62 nM | 310 nM | CC(C)n1nnc2ccc(-c3ccnc(Nc4ccc(C(=O)N5CCCC5)cn4)c3)cc21 | –
15 | – | 650 nM | 3.06 nM | 70 nM | CC(C)n1nnc2ccc(-c3ccnc(Nc4cc(C(=O)N5CCOCC5)ccn4)c3)cc21 | –
16 | – | 770 nM | 3.44 nM | 80 nM | CC(C)n1nnc2ccc(-c3ccnc(Nc4cc(C(=O)N5CCN(C)CC5)ccn4)c3)cc21 | –
17 | – | > 2000 nM | 3.05 nM | 280 nM | CC(C)n1nnc2ccc(-c3ccnc(Nc4ccc(C(=O)N5CCCN(C)CC5)cn4)c3)cc21 | –
